Holding throughout (type): physicochemical
Data set [1] in a line: Dynamic Vapour Sorption (DVS) analysis. The note with it: for moisture gain observed during the moisture sorption: adsorption cycle 5 to 95% RH; for crystalline form after the DVS analysis (XRPD before/after): sample exposed up to 95% RH and down to 5% RH. Here is the method: Dynamic Vapour Sorption (DVS) analysis was carried out using a TA Instruments Q5000 Dynamic Vapor Sorption analyzer. The instrument was calibrated with standard weights and a sodium bromide standard for humidity. Approximately 20 mg of sample was loaded into a metal-coated quartz pan for analysis. The sample was analyzed at 25° C. with a maximum equilibration time of one hour in 10% relative humidity (RH) steps from 5 to 95% RH (adsorption cycle) and from 95 to 5% RH (desorption cycle). The movement from one step to the next occurred either after satisfying the equilibrium criterion of 0.01% weight change or, if the equilibrium criterion was not met, after one hour. The percent weight change values were calculated using Microsoft Excel®. The temperature for the DVS analysis can impact the outcome of the results.

Data set [2] can be described thus: Stability when milled in the presence of water or stirred (slurried) in water. The following applies: milled with water; stirred in water between room temperature and 60° C. The method, then:
Milling was performed using a Retsch Mill. About 20 mg of material was placed into a plastic grinding cup followed by 10 μL of water and a stainless-steel ball. The sample was then milled at 100% power for 20 minutes.
To a plastic grinding cup was added 18.4 mg of Compound A and 10 μL of water. A stainless-steel ball was added. The sample was then milled on a Retsch mill at 100% power for 20 minutes at room temperature.
To a 20 mL glass vial was added 200.0 mg of Compound A and 3.0 mL of water. A magnetic stir bar was added and the vial was capped. The vial was placed on a heating/stirring plate and the slurry was stirred magnetically for 7 days at ambient temperature. The vial was centrifuged for 10 minutes and the mother liquor was decanted. A dry air purge was directed into the vial for 10 minutes to dry the solid. The vial was then placed in a room temperature vacuum desiccator for 2 hours.
To a 20 mL glass vial was added 200.0 mg of Compound A and 3.0 mL of water. A magnetic stir bar was added and the vial was capped. The vial was placed on a heating/stirring plate set at 60° C. and the slurry was stirred magnetically for 3 days. The vial was centrifuged for 10 minutes and the mother liquor was decanted. A dry air purge was directed into the vial for 10 minutes to dry the solid. The vial was then placed in a room temperature vacuum desiccator for 2 hours.

The nature of data set [3]: Relative stability of Form A and Form B slurried in organic/water solvent systems of differing water activity. The following applies: mixture of the two forms slurried. The text has this: If the solvent system has higher than or equal water activity of 0.72, and the two crystalline forms are mixed, the mixture converts to Form A. The solvent systems can be mixture of any organic solvents and organic solvents containing water.
The solvent systems can be mixture of any organic solvents and organic solvents containing water.

[4] abbreviates: DVS, 25° C., desorption cycle 95 to 5% RH.

As to `CSc1nc(N)c2ncn([C@H]3[C@H](O)[C@H](O)[C@]4(CO)C[C@H]34)c2n1` [Form A of compound A], in data set [1] (DVS, 5 to 95% RH), the “stability under various humidity conditions” value is given as “stable under various humidity conditions”. Moreover, the “hygroscopicity based on the DVS data” value in data set [1] (DVS, 25° C., 5 to 95% RH) was “moderately hygroscopic”. Further, in data set [1] (DVS, 25° C.), the “moisture gain observed during the moisture sorption” value was “approximately 9.3%”. Moreover, the “moisture loss observed during the desorption cycle” value in data set [1] (setting [4]) was “about 2%”. Moreover, the “crystalline form after the DVS analysis (XRPD before/after)” value in data set [1] is on record as “remained unchanged”. Further, the “stability when milled in the presence of water or stirred in water” value in data set [2] was “stable”. Also, the “water activity of solvent system at which this form is the more stable of Forms A and B” value in data set [3] is at least 0.72.
As for `CSc1nc(N)c2ncn([C@H]3[C@H](O)[C@H](O)[C@]4(CO)C[C@H]34)c2n1` [Form B of compound A], in data set [1] (DVS, 25° C., 5 to 95% RH), the “hygroscopicity based on the DVS data” value is reported as “moderately hygroscopic”. Also, in data set [1] (DVS, 25° C.), the “moisture gain observed during the moisture sorption” value was “approximately 6.4%”. Further, in data set [1] (setting [4]), the “moisture loss during the desorption cycle (in words)” value was “lost all of the moisture gain”. For the same molecule, the “crystalline form after the DVS analysis (XRPD before/after)” value in data set [1] is recorded as “remained unchanged”. Further, the “water activity of solvent system at which this form is the more stable of Forms A and B” value in data set [3] is reported as “less than or equal to 0.63”.

Values taken from patent US10765693B2, “Polymorphic compounds and uses thereof” (Astrocyte Pharmaceuticals, Inc., priority 2018, dated 2020).
